# From the Kinase Knowledgebase extract (Sharma et al. 2016)
# Molecular target: PIK3CG (human) (UniProt P48736)
# Test: Assessment of PIK3CG Kinase Activity
# PIK3CG (human), sequence (P48736 whole entry, looked up): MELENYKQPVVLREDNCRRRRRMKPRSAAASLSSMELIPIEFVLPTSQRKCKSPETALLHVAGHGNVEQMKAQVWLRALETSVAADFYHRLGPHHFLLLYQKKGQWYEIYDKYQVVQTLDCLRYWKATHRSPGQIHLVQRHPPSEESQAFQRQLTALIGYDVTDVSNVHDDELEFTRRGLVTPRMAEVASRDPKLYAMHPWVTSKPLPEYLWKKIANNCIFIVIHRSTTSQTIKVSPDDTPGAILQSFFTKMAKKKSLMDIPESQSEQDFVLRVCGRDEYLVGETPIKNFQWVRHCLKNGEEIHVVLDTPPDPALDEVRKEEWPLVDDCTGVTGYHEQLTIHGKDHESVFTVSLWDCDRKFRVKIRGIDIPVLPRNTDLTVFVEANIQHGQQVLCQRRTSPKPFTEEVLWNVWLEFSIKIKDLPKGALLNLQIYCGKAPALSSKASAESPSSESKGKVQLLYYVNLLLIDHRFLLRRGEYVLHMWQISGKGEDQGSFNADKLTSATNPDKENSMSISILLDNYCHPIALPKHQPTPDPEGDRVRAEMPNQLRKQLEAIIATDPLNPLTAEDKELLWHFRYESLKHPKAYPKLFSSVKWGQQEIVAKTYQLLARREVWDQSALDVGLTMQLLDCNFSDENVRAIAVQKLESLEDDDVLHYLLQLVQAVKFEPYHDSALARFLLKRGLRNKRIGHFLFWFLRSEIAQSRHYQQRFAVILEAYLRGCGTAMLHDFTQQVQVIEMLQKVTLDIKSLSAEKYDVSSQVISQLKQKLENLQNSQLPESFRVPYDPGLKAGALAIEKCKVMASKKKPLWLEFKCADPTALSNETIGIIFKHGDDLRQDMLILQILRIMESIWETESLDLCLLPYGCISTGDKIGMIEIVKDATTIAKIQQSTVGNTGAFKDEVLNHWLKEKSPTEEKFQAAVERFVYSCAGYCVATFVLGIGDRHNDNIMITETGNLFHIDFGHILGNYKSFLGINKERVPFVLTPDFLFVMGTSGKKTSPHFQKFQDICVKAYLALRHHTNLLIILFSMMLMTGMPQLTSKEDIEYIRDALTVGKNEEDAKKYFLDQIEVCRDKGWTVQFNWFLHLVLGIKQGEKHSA
row,IC50,SMILES
1,< 800 nM,CC(=O)Nc1nc2c(s1)-c1c(cnn1-c1ccc(C(=O)N(C)CC#N)cc1)CC2
2,< 800 nM,O=C(CCN1CCCCC1)Nc1nc2c(s1)-c1c(cnn1-c1ccccc1)CC2
3,< 800 nM,COc1cccc(-c2ncc3c(n2)-c2sc(NC(C)=O)nc2CC3)c1
4,< 800 nM,COC(=O)Nc1nc2c(s1)-c1c(cnn1-c1ccccc1)CC2
5,< 800 nM,CC(=O)Nc1nc2c(s1)-c1nn(C(=O)C3CC3)cc1CC2
6,< 800 nM,O=C(NCCN1CCOCC1)Nc1nc2c(s1)-c1c(cnn1-c1ccccc1)CC2
7,< 800 nM,CC(=O)Nc1nc2c(s1)-c1nc(-c3ccc(O)cc3)ncc1CC2
8,< 800 nM,CC(=O)Nc1nc2c(s1)-c1c(cnn1-c1ccc(C(=O)N3CCC(N)CC3)cc1)CC2
9,< 800 nM,CNC(=O)Nc1nn(-c2ccccc2Cl)c2c1CCc1nc(NC(C)=O)sc1-2
10,< 800 nM,CC(=O)Nc1nc2c(s1)-c1c(cnn1-c1ccc(C(=O)NCC3CC3)cc1)CC2
11,< 800 nM,COC(=O)c1nn(-c2ccccc2C)c2c1CCc1nc(NC(C)=O)sc1-2
12,< 800 nM,CC(=O)Nc1nc2c(s1)-c1nc(-c3ccccn3)ncc1CC2
13,< 800 nM,CC(=O)Nc1nc2c(s1)-c1c(c(-c3cn(C)cn3)nn1-c1ccccc1C(F)(F)F)CC2
14,< 800 nM,CNC(=O)Nc1nc2c(s1)-c1nc(-c3ccccc3C)ncc1CC2
15,< 800 nM,CC(=O)Nc1nc2c(s1)-c1c(cnn1-c1ccc(C(=O)N[C@H](C(N)=O)[C@@H](C)O)cc1Cl)CC2
16,< 800 nM,CC(=O)Nc1nc2c(s1)-c1c(cnn1-c1ccc3ncsc3c1)CC2
17,< 800 nM,CC(=O)Nc1nc2c(s1)-c1c(cnn1-c1ccc(CC(=O)NCCC3CCCN3C)cc1)CC2 (stereo not given)
18,< 800 nM,CC(=O)Nc1nc2c(s1)-c1c(c(-c3ccco3)nn1-c1cccc(Cl)c1)CC2

row,IC50,SMILES
1,< 800 nM,CC(=O)Nc1nc2c(s1)-c1c(cnn1C(=O)C(C)C)CC2
2,< 800 nM,O=C(CO)Nc1nc2c(s1)-c1c(cnn1-c1ccccc1)CC2
3,< 800 nM,CC(=O)Nc1nc2c(s1)-c1c(cnn1-c1ccc(C(=O)N[C@H]3CC[C@@H](N4C[C@@H](C)O[C@@H](C)C4)CC3)cc1)CC2
4,< 800 nM,CC(=O)Nc1nc2c(s1)-c1c(c([C@H]3CCCO3)nn1-c1ccc(C(=O)NCc3ccncc3)cc1Cl)CC2
5,< 800 nM,CC(=O)Nc1nc2c(s1)-c1nc(N3CCCC(CN)C3)ncc1CC2 (stereo not given)
6,< 800 nM,CC(=O)Nc1nc2c(s1)-c1c(cnn1-c1ccc(C(=O)N(C)CCO)cc1)CC2
7,< 800 nM,CC(=O)Nc1nc2c(s1)-c1c(cnn1-c1ccc(OC(F)(F)F)cc1)CC2
8,< 800 nM,CC(=O)Nc1nc2c(s1)-c1c(cnn1-c1ccc(C(=O)N[C@H]3CC[C@H](N)CC3)cc1)CC2
9,< 800 nM,CC(=O)Nc1nc2c(s1)-c1c(cnn1-c1ccc(C(=O)N[C@H]3CC[C@@H](N4CCOCC4)CC3)cc1)CC2
10,< 800 nM,CC[C@H](NC(=O)c1ccc(-n2ncc3c2-c2sc(NC(C)=O)nc2CC3)c(Cl)c1)C(N)=O
11,< 800 nM,CC(=O)Nc1nc2c(s1)-c1c(cnn1-c1ccc(Cl)cc1)C2
12,< 800 nM,CC(=O)Nc1nc2c(s1)-c1c(cnn1-c1cccc(C)c1)C2
13,< 800 nM,CC(=O)Nc1nc2c(s1)-c1c(cnn1-c1ccc(C(=O)N[C@H](Cc3cnc[nH]3)C(N)=O)cc1Cl)CC2
14,< 800 nM,CC(=O)Nc1nc2c(s1)-c1c(c(-c3ccccc3)nn1-c1ccccc1F)CC2
15,< 800 nM,CC(=O)Nc1nc2c(s1)-c1c(c(-c3ccco3)nn1-c1ccc(C(=O)NC3CCN(C)CC3)cc1Cl)CC2
16,< 800 nM,CCN1CCCC(NC(=O)Cc2ccc(-n3ncc4c3-c3sc(NC(C)=O)nc3CC4)cc2)C1 (stereo not given)
17,< 800 nM,CC(=O)Nc1nc2c(s1)-c1c(cnn1-c1cccc(F)c1)CC2
18,< 800 nM,CC(=O)Nc1nc2c(s1)-c1c(cnn1-c1ccc(C(=O)N[C@H]3CC[C@H](N4CCCC4)CC3)cc1)CC2

# More lines, now with the values behind:
row,SMILES,IC50
1,CC(=O)Nc1nc2c(s1)-c1nc(N(C)CCN(C)C)ncc1CC2,< 800 nM
2,CC(=O)Nc1nc2c(s1)-c1nn(-c3ccccc3F)c(-c3ccco3)c1CC2,< 800 nM
3,C=C1CCN(C(=O)c2ccc(-n3ncc4c3-c3sc(NC(C)=O)nc3CC4)cc2)CC1,< 800 nM
4,COC(=O)Nc1nn(-c2ccccc2Cl)c2c1CCc1nc(NC(C)=O)sc1-2,< 800 nM
5,CC(=O)Nc1nc2c(s1)-c1c(c(C(C)C)nn1-c1ccccc1C(F)(F)F)CC2,< 800 nM
6,CC(=O)Nc1nc2c(s1)-c1c(cnn1-c1ccc(C(=O)N[C@@H]3CCc4nc(N)sc4C3)cc1)CC2,< 800 nM
7,CCN(CC)CC1CCCCN1C(=O)Cc1ccc(-n2ncc3c2-c2sc(NC(C)=O)nc2CC3)cc1 (stereo not given),< 800 nM
8,CC(=O)Nc1nc2c(s1)-c1c(c(C(=O)N(C)C)nn1-c1ccccc1Cl)CC2,< 800 nM
9,CC(=O)Nc1nc2c(s1)-c1c(cnn1-c1ccc(C(=O)N[C@@H](CCC(=O)O)C(N)=O)cc1Cl)CC2,< 800 nM
10,C#CCN(C)C(=O)c1ccc(-n2ncc3c2-c2sc(NC(C)=O)nc2CC3)cc1,< 800 nM
11,CC(=O)Nc1nc2c(s1)-c1c(cnn1-c1ccc(CC(=O)NC3CCS(=O)(=O)C3)cc1)CC2 (stereo not given),< 800 nM
12,CS(=O)(=O)c1cccc(Nc2nc3c(s2)-c2c(cnn2-c2ccccc2)CC3)c1,< 800 nM
13,CC(=O)Nc1nc2c(s1)-c1nc(-c3cccc(Cl)c3)ncc1CC2,< 800 nM
14,CC(=O)Nc1nc2c(s1)-c1c(cnn1-c1ccncc1)CC2,< 800 nM
15,CC(=O)Nc1nc2c(s1)-c1c(cnn1-c1ccc(CC(=O)NCCN3CCCC3=O)cc1)CC2,< 800 nM
16,CC(=O)Nc1nc2c(s1)-c1c(cnn1-c1ccc(C(=O)N[C@H]3CC[C@@H](N4CCCC4)CC3)cc1)CC2,< 800 nM
17,CCC(=O)Nc1nc2c(s1)-c1nc(-c3ccccc3)ncc1CC2,< 800 nM

row,SMILES,IC50
1,CC(=O)Nc1nc2c(s1)-c1c(cnn1-c1ccc(S(=O)(=O)N3CCN(C)CC3)cc1)CC2,< 800 nM
2,CC(=O)Nc1nc2c(s1)-c1c(cnn1-c1cc(C)ccc1C)CC2,< 800 nM
3,CC(=O)Nc1nc2c(s1)-c1c(cnn1-c1cc(Cl)ccc1Cl)CC2,< 800 nM
4,CC(=O)Nc1nc2c(s1)-c1nc(N(C)C)ncc1CC2,< 800 nM
5,CC(=O)Nc1nc2c(s1)-c1nn(-c3ccc(C(=O)N[C@H]4CC[C@H](N5CCCC5)CC4)cc3)c(-c3ccco3)c1CC2,< 800 nM
6,CC(=O)Nc1nc2c(s1)-c1c(cnn1-c1ccc(C(=O)NCc3ncc[nH]3)cc1)CC2,< 800 nM
7,COc1ccc(-n2ncc3c2-c2sc(NC(C)=O)nc2CCC3)cc1,< 800 nM
8,CC(=O)Nc1nc2c(s1)-c1c(cnn1-c1ccc(CC(=O)N3CCCC3c3ccccn3)cc1)CC2 (stereo not given),< 800 nM
9,COC(=O)c1nn(-c2ccccc2Cl)c2c1CCc1nc(NC(C)=O)sc1-2,< 800 nM
10,CC(=O)Nc1nc2c(s1)-c1c(c(N)nn1-c1ccccc1Cl)CC2,< 800 nM
11,CC(=O)Nc1nc2c(s1)-c1c(cnn1-c1ccc(C(=O)N[C@@H](Cc3ccccc3)C(N)=O)cc1Cl)CC2,< 800 nM
12,CC(=O)Nc1nc2c(s1)-c1nc(N3CCCC(CNC(=O)OC(C)(C)C)C3)ncc1CC2 (stereo not given),< 800 nM
13,CN1CCN(C(=O)Nc2nc3c(s2)-c2c(cnn2-c2ccccc2)C3)CC1,< 800 nM
14,CC(=O)Nc1nc2c(s1)-c1nc(N3CCOCC3)ncc1C2,< 800 nM
15,CC(=O)Nc1nc2c(s1)-c1c(cnn1-c1ccccc1C(F)(F)F)CC2,< 800 nM
16,CC(=O)Nc1nc2c(s1)-c1nc(-c3c(Cl)cccc3Cl)ncc1CC2,< 800 nM
17,CC(=O)Nc1nc2c(s1)-c1c(cnn1-c1ccc(C(=O)N3CCOCC3)cc1Cl)CC2,< 800 nM
